Reference: patent publication US12544428B2, “Controlled-release CNP agonists with reduced side-effects” (ASCENDIS PHARMA GROWTH DISORDERS A/S, priority 2016, dated 2026)

Legend:
[1] = Pharmacokinetic profile of CNP-38 after subcutaneous single-dose administration to cynomolgus monkeys; type: in vivo
Method: This study was performed in order to test the pharmacokinetics of CNP-38 after subcutaneous (s.c.) administration in cynomolgus monkeys. […] Blood samples were collected at 5, 10, 15, 30, 45 min and 1, 2, 4, 8 hours upon dose.
Method: Plasma levels of CNP were analysed using a commercially available competitive radioimmuno-assay (RK-012-03, Phoenix Pharmaceuticals, CA). The assay was applied essentially as described by the manufacturer. The assay is based on competitive binding between 125I-labelled CNP (supplied in the kit) and unlabeled CNP (from study sample or calibrants) to an anti-CNP antibody. When the concentration of CNP in the sample increases, the amount of 125I-labelled CNP that is able to bind to the antibody decreases. By measuring the amount of 125I-labelled CNP bound as a function of the concentration of peptide, it is possible to construct a calibration curve from which the concentration of peptide in the sample can be determined.
A few changes to the supplied assay protocol were made. These changes included using in-house CNP calibrant and QC samples to secure consistency between assay runs. In order to shorten the duration of the assay, the initial incubation of samples with antibodies was performed at room temperature for 5 hours (instead of 16-24 hours at 4° C.). Due to matrix effects in monkey plasma, the minimal required dilution was set at 1:10, yielding an assay range of 150-1080 pg/mL CNP.

[2] = Evaluation of cardiovascular effects in the conscious telemetered mouse (subcutaneous administration); type: in vivo, Crl:CD1(ICR) mice; settings: 800 μg CNP-38 (eq)/kg sc; for MAP: mean ± SD, n = 4
Text: The purpose of this study was to evaluate the haemodynamic side effects of 11i at dose level equivalent to a CNP-38 dose level eliciting haemodynamic side effects (decrease in blood pressure) in the telemetered mouse.
Male Crl:CD1(ICR) mice (age range 8-13 weeks and body weight range 27.3-35.6 g at start of dosing) were surgically implanted with a TA11PA-C10 telemetry transmitter (Data Sciences International (DSI)) in the carotid artery. The body of the transmitter was placed subcutaneously in the lateral flank of the mouse. The mice were dosed subcutaneously in a latin square crossover design with at least 72 hours between dosing occasions. Mice were dosed with 1) vehicle (10 mM succinate, 46.0 g/L mannitol, pH 4.00), 2) CNP-38 (800 μg CNP-38/kg, 10 mM succinate, 46.0 g/L mannitol, pH 4.00) or 3) 11i (800 μg CNP-38 eq/kg, 10 mM succinate, 46.0 g/L mannitol, pH 4.00). At least four mice were included at each dose level. Blood pressure (systolic (SAP), diastolic (DAP) and mean (MAP) and heart rate (HR, derived from blood pressure), were recorded using a digital data capture system linked with a DSITM Ponemah data acquisition and analysis system. The capture system allowed recording of the cardiovascular parameters whilst the mice were in individual cages. On the day of each test session the animals were weighed and a predose recording was performed for at least 60 min prior to dosing. Each mouse was returned to the home cage and the cardiovascular parameters were recorded for approximately 48 hours postdose. Blood pressure and HR were reported at the following time points: −30, −20, −10, 5, 15 and 30 min postdose and 1, 2, 6, 12, 18, 24, 30, 36, 42 and 48 hours postdose. Each time point was presented as the average value of five minute's recording prior to the time point. The monitoring period was selected to cover exposure to the test items both prior to and after Tmax.

recombinant human NEP = recombinant human NEP (Homo sapiens, UniProt P08473); settings: pH 7.4
recombinant human NEP, sequence (P08473 whole entry): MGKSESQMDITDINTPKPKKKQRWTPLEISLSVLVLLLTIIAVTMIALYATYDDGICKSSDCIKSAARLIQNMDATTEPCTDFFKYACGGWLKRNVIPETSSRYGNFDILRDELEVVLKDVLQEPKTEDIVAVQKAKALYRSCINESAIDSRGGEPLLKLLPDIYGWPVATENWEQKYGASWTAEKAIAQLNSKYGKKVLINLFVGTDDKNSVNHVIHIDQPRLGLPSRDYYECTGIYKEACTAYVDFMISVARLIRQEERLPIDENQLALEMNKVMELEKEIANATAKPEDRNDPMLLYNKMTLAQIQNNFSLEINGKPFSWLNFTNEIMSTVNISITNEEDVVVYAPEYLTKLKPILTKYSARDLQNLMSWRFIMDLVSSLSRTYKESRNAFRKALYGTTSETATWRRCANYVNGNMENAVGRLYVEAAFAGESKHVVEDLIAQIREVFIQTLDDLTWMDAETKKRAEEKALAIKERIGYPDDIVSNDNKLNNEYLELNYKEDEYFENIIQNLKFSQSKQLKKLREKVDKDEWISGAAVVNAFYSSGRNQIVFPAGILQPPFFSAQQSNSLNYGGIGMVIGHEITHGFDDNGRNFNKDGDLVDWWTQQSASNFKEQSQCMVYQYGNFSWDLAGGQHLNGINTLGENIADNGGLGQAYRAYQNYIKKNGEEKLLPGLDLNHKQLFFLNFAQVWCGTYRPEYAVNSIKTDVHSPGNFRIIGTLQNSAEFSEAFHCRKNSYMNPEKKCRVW
Method: In order to determine the in vitro stability of various CNP variants including different peptide chain lengths and PEGylations using different PEGylation sites and PEG molecules in the presence of Neutral Endopeptidase (NEP), a NEP digest assay was established. This assay monitored the decrease of the non-digested CNP variant (normalized with the internal standard PFP) over time in reference to the t0-time point.
In detail, recombinant human NEP (2.5 μg/mL final concentration) and the standard pentafluorophenol (PFP; 40 μg/mL final concentration) were added to the CNP variant (100 μg CNP equivalents/mL) in digest buffer (50 mM Tris-HCl, pH 7.4, 10 mM NaCl). The solution was incubated at 37° C. and 500 rpm for up to 4 days. Samples were taken at different time intervals. The reaction was stopped by a combined reduction and heat denaturation adding TCEP (tris(2-carboxyethyl)phosphine; 25 mM final concentration) and incubating the mixture at 95° C., 500 rpm for 5 minutes. The resulting reaction products were assigned using HPLC-MS. The half life of each CNP variant was calculated via the ratio change in the HPLC-UV peak areas of CNP and PFP over time.

NPR-B receptor = biological target: T1, NPR-B receptor (Mus musculus, UniProt Q6VVW5); assay: Functional cGMP stimulation in NIH-3T3 cells with CNP variants; type: cell-based, murine; settings: residual NPR-B activity vs non-PEGylated CNP-38, cGMP
T1 construct: These cells express endogenously the NPR-B receptor on the cell surface; endogenous in cells; host or cells: NIH-3T3 (murine embryo fibroblast)
T1 sequence (Q6VVW5 23-1047 limits assumed): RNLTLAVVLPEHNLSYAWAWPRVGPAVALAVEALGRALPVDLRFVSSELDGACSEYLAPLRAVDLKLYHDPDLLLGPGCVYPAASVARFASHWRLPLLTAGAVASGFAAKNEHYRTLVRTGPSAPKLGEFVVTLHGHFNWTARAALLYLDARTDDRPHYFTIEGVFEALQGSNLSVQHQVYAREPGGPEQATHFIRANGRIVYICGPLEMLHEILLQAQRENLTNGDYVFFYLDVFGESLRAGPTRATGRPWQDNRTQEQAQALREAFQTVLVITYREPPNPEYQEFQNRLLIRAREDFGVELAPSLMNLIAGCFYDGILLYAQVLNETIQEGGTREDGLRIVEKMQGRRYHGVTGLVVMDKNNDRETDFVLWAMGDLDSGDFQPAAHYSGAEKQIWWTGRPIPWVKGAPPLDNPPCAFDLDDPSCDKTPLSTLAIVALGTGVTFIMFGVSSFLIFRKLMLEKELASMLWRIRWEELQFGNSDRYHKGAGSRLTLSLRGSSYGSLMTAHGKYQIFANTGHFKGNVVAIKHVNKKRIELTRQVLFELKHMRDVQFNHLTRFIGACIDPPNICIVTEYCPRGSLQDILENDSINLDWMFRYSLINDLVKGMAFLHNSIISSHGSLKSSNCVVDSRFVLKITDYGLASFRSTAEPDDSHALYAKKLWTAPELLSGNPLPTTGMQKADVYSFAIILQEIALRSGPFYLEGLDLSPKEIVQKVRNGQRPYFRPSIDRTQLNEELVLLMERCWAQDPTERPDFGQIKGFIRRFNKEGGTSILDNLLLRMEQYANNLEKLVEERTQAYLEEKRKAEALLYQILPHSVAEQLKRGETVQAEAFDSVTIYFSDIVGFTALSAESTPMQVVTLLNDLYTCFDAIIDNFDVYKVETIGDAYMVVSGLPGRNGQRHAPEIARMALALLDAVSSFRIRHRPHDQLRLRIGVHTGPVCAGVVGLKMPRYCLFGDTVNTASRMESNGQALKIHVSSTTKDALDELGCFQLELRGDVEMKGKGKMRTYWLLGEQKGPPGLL
Method: As used herein “EC50” with regard to controlled-release CNP agonist and CNP agonist refers to the concentration of controlled-release CNP agonist and CNP agonist with which a half-maximum cGMP production of NPR-B is elicited. NPR-B activity in the form of its EC50 of the controlled-release CNP agonist, of the released CNP agonist and of CNP-22 is measured by cultivating NIH-3T3 (Murine Embryo Fibroblast cell line) cells which express NPR-B on their cell surface, incubating the cells with the controlled-release CNP agonist, the corresponding released CNP agonist or CNP-22, respectively, and determining the intracellular production of the second messenger cGMP with a standard cGMP assay. In particular the assay is performed as follows: • (1) murine NIH-3T3 cells expressing endogenous NPR-B are cultivated in DMEM F-12 medium with 5% FBS and 5 mM glutamine at 37° C. and 5% CO2; • (2) for each assay 50,000 cells are resuspended in Dulbecco's PBS with IBMX and incubated with either the controlled-release CNP agonist, the corresponding released CNP agonist or CNP-22; each in different concentrations; • (3) after incubating for 30 min at 37° C. and 5% CO2, the cells are lysed and cGMP levels are determined; and • (4) generating an EC50 value from the determined cGMP levels.
Functional activity of CNP variants were determined in a cell-based assay with NIH-3T3 cells (Murine Embryo Fibroblast cell line). These cells express endogenously the NPR-B receptor on the cell surface. Stimulation of the NPR-B receptor with CNP leads to intracellular production of the second messenger cGMP which is detected with a commercially available cGMP assay. NIH-3T3 cells were routinely cultured in DMEM F-12 medium with 5% FBS and 5 mM glutamine at 37° C. and 5% CO2. For each assay, 50,000 cells were resuspended in stimulation buffer (Dulbecco's PBS with IBMX) and incubated with the CNP variants in different concentrations. CNP (dilutions were made in PBS with 0.2% BSA). After incubation of 30 min at 37° C. and 5% CO2, the cells were lyzed and cGMP levels were determined with a commercially available cGMP TR-FRET assay (Cisbio, cGMP kit, Cat. No. 62GM2PEB). PEGylated CNP variants were always characterized in comparison with the non-PEGylated version in the same experiment batch. If possible, evaluation of the residual activity was done via the relative EC50-parameter of the resulting dose-response curve (restricted model with common slope).
11i was incubated under physiological conditions (1 mg CNP-38 eq/mL), as described in Example 20. After 7 d, released CNP-38 was isolated by RP-HPLC and analyzed for bioactivity as described in Example 21.

NPR-C = biological target: T2, NPR-C (Homo sapiens, UniProt P17342); assay: NPR-C affinity assay; type: binding; settings: residual NPR-C affinity, NPR-C expressing Hek293 cells, competition with fluorescein-labelled CNP 27d
T2 construct: expressed in transfected cells; host or cells: Hek293, lentiviral transduction, CMV promoter, puromycin selection
T2 sequence (P17342 27-541): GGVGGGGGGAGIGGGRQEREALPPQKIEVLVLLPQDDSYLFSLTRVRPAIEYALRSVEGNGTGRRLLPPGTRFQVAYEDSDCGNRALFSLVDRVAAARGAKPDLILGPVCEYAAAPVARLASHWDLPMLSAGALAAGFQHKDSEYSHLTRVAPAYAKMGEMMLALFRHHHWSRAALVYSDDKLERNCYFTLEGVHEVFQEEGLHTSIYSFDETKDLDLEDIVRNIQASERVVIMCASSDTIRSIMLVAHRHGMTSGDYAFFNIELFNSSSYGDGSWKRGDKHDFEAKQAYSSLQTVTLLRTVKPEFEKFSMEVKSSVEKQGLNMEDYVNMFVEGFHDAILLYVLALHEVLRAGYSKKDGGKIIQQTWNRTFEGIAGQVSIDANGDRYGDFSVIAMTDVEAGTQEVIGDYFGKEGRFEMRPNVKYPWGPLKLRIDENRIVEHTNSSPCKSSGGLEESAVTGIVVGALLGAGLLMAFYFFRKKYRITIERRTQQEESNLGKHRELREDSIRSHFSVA

[3] = CNP injection, healthy volunteers; cited from earlier work

Compound: CC[C@H](C)[C@@H]1NC(=O)[C@H](CCCNC(=N)N)NC(=O)[C@H](CC(=O)O)NC(=O)[C@H](CC(C)C)NC(=O)[C@H](CCCCN)NC(=O)[C@H](CC(C)C)NC(=O)CNC(=O)[C@H](Cc2ccccc2)NC(=O)[C@@H](NC(=O)CNC(=O)[C@H](CCCCN)NC(=O)[C@H](CO)NC(=O)[C@H](CC(C)C)NC(=O)CNC(=O)[C@H](CCCCN)NC(=O)[C@H](CCCCN)NC(=O)[C@H](CC(N)=O)NC(=O)[C@H](C)NC(=O)CNC(=O)[C@H](CCCCN)NC(=O)[C@H](Cc2ccc(O)cc2)NC(=O)[C@H](CCCCN)NC(=O)[C@H](CCCNC(=N)N)NC(=O)[C@H](C)NC(=O)[C@H](CC(N)=O)NC(=O)[C@@H]2CCCN2C(=O)[C@H](Cc2c[nH]cn2)NC(=O)[C@H](CCC(=O)O)NC(=O)[C@H](CCC(N)=O)NC(=O)[C@@H](N)CC(C)C)CSSC[C@@H](C(=O)O)NC(=O)CNC(=O)[C@H](CC(C)C)NC(=O)CNC(=O)[C@H](CO)NC(=O)[C@H](CCSC)NC(=O)[C@H](CO)NC(=O)CNC1=O [CNP-38, reference compound]
- Half-life (mean) ([1]; cynomolgus monkey, in vivo, sc, 40 ug/kg): 6.6 min
- half-life ([1]; male, cynomolgus monkey, in vivo, sc, 40 ug/kg): ~7 min
- tolerability ([1]; single s.c. 40 μg/kg): well tolerated
- HR [2]: not impacted
- MAP versus vehicle at the remaining ten time points ([2]; 1 to 48 hours postdose): no difference in MAP
- change in MAP compared to predose ([2]; 5, 15 and 30 min post dose, CNP-38: 3 of 4 animals): significant decrease in MAP
- MAP ([2]; 5 min post dose): 102.0 ± 7.5 mmHg
- MAP ([2]; 15 min post dose): 89.5 ± 29.4 mmHg
- MAP ([2]; 30 min post dose): 99.5 ± 25.2 mmHg
- MAP ([2]; predose): 106.8 ± 13.4 mmHg

Compound: Permanent Lys16 CNP-34 PEG 5 kDa Conjugate [Compound 17e]
- half-life (recombinant human NEP): 54.2 h

Compound: Permanent Lys22 CNP-34 PEG 5 kDa Conjugate [Compound 18e]
- half-life (recombinant human NEP): 38.9 h

Compound: Permanent Lys26 CNP-38 PEG 5 kDa Conjugate [Compound 19e]
- EC50 compound/EC50 CNP-38 (NPR-B receptor): >100
- half-life (recombinant human NEP): 62.8 h
- IC50 of PEGylated CNP-38/IC50 CNP-38 (NPR-C): 1.1

Compound: Permanent N-Terminal CNP-38 PEG 5 kDa Conjugate [Compound 15e]
- EC50 compound/EC50 CNP-38 (NPR-B receptor): >5
- IC50 of PEGylated CNP-38/IC50 CNP-38 (NPR-C): 0.53

Compound: CNP: natriuretic peptide CNP injected in healthy volunteers (Igaki et al.)
- heart rate [3]: significant increase in heart rate
- systolic and diastolic blood pressure [3]: transient but significant decrease in both systolic and diastolic blood pressure
